According to US11548900B2, “Oxazino-quinazoline and oxazino-quinoline type compound, preparation method and uses thereof” (BEIJING SCITECH-MQ PHARMACEUTICALS LIMITED, priority 2018, dated 2023):

What was measured:
HER2 kinase = HER2 kinase (Homo sapiens (Human), UniProt P04626); experiment: Inhibition of HER2 kinase activity (ULight-labeled PolyGT substrate); assay type: biochemical; conditions: HER2 kinase 10 nM, ATP 10 μM, 2 hours
Procedure, shortened: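 Eleven-point 3-fold dilutions (0.042 nM–2.5 μM final, 1% DMSO) tested in duplicate against 10 nM HER2 with 100 nM ULight-labelled PolyGT and 10 μM ATP. Reaction ran 2 h at RT after 5 min pre-incubation; 665/615 nm TR-FRET ratio used to derive inhibition and IC50.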

HCC827 cells = experiment: Inhibition of cell proliferation, HCC827 (CCK-8, 72 h); assay type: cell-based; conditions: 72 h incubation
Description: The assay for the inhibition of cell proliferation by small molecular compounds was carried out using the method as follows:
1. 600 μL pancreatin was added to a T75 cell culture flask, which was digested in a 37° C. incubator for about 1 min before 5 mL of DMEM complete culture solution was added, blew evenly, transferred to a 15 mL centrifuge tube, and centrifuged at 1000 rpm for 4 min;
2. The supernatant was removed and 5 mL DMEM complete culture solution was added, blew evenly, and 10 μL cell suspension was taken and mixed with 10 μL 0.4% Trypan Blue, and counted using a cell counter;
3. BT474 and HCC827 cell lines were seeded in 96-well plates at a cell density of 10,000 and 3000 cells/well/80 μL, respectively, and cultured overnight. Only sterile water was added to the 36 wells on the periphery of the 96-well plate without adding cells, and only the 60 wells in the center of the 96-well plate were used for cell assays and controls;
4. Dilution of compounds: the compounds were diluted with a 3-fold dilution to make 10 concentrations in total with an initial concentration of 10 mM;
5. 20 μL of different compounds with different concentrations were added to each well, and 20 μL of complete culture solution was added to the remaining wells. The final concentration of DMSO in each well is 0.25%;
6. After 72 h of incubation, 10 μL CCK-8 reagent was added to each well, and incubated at 37° C. for 1-2 h; and the OD value was read at 450 nm;
7. Cell survival rate (%)=[(As−Ab)/(Ac−Ab)]*100%
As: Assay well (medium containing cell, CCK-8, compound)
Ac: Control well (medium containing cell, CCK-8)
Ab: Blank well (CCK-8, medium without cell and compound)
8. The value was imported into Graphpad Prism5 software for the calculation of IC50s (compound concentration at which 50% maximum survival rate is observed).

BT474 cells = experiment: Inhibition of cell proliferation, BT474 (CCK-8, 72 h); assay type: cell-based
Procedure, shortened: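 BT474 and HCC827 seeded at 10,000 and 3000 cells/well respectively, cultured overnight, then exposed to 10-point 3-fold compound dilutions (top stock 10 mM; 0.25% DMSO final) for 72 h. Viability by CCK-8, OD450; survival normalised to untreated and cell-free blanks, IC50 from curve fit.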

EGFR kinase = EGFR kinase (Homo sapiens (Human), UniProt P00533); experiment: Inhibition of EGFR kinase activity (ULight-labeled JAK-1 (Tyr1023) peptide substrate); assay type: biochemical; conditions: EGFR kinase 0.35 nM, ATP 150 μM, 2 hours
Procedure, shortened: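 TR-FRET kinase assay: 0.35 nM EGFR, 150 μM ATP, 100 nM substrate, 2 h at room temperature in the dark after 5 min enzyme-compound preincubation, 1% DMSO. Compounds tested as 11-point 3-fold series, 2.5 μM to 0.042 nM final, duplicate; IC50 from 665/615 nm ratio-based inhibition.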

[1] = Homo sapiens, BT-474, 72 h incubation

EGFR kinase, sequence (P00533 25-1210): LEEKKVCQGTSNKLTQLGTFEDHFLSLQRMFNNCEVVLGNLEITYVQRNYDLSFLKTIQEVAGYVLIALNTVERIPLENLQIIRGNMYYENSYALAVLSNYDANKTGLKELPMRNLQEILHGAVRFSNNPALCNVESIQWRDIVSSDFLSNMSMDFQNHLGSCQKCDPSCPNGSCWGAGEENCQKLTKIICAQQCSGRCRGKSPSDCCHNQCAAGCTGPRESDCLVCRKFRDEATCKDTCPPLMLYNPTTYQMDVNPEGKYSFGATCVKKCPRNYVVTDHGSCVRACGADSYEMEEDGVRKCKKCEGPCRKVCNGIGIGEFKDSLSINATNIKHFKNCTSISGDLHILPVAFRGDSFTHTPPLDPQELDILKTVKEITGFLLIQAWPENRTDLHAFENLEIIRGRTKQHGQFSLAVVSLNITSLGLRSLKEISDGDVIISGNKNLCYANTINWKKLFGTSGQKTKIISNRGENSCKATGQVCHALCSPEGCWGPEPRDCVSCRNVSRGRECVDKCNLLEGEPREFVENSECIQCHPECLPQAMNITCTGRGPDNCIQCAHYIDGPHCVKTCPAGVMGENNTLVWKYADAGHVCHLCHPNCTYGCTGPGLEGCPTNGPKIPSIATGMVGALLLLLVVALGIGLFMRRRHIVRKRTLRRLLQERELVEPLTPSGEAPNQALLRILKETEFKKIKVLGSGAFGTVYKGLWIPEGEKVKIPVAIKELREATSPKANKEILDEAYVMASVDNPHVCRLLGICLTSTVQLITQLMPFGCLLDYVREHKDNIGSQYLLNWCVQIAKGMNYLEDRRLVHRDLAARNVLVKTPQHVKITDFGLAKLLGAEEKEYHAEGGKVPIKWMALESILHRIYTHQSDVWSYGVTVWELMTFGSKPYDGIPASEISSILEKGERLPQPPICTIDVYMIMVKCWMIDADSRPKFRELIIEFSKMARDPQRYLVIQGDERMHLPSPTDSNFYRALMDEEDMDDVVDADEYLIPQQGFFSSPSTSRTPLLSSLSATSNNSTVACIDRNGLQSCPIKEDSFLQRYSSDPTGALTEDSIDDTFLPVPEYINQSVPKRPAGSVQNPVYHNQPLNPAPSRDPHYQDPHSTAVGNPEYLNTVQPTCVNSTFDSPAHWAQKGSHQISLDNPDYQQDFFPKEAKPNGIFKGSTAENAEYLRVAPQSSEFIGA
HER2 kinase, sequence (P04626 23-1255): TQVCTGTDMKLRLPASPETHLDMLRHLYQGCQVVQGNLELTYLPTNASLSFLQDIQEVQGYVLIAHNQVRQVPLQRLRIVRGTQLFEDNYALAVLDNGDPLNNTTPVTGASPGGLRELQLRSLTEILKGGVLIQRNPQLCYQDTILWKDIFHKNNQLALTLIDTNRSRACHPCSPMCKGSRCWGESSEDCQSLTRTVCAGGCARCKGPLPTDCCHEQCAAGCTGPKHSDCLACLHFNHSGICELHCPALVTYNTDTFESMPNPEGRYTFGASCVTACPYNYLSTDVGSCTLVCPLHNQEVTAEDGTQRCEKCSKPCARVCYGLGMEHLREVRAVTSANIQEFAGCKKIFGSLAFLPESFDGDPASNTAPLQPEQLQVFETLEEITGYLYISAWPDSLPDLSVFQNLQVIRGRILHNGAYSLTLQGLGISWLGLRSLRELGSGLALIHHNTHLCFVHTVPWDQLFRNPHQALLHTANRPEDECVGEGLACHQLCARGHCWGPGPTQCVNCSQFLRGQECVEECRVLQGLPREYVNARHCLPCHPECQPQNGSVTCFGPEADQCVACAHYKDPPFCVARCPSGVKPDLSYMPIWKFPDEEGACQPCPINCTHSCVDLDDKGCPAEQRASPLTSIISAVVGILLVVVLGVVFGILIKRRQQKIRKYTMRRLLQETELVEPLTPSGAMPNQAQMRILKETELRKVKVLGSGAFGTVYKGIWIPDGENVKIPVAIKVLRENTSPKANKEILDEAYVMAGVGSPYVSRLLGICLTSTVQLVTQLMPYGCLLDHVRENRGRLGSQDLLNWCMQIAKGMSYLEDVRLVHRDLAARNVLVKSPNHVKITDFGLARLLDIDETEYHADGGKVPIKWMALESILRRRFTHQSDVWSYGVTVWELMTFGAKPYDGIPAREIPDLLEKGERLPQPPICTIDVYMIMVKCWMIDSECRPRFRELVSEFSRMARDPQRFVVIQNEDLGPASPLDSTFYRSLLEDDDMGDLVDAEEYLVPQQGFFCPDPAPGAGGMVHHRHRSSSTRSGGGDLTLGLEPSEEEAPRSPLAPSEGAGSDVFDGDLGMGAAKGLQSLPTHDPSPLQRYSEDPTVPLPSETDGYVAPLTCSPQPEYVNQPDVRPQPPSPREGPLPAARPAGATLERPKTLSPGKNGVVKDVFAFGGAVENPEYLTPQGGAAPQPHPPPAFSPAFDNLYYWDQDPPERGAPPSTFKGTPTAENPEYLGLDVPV

Structure (SMILES)	IC50 (HER2 kinase) [nM]	IC50 (HCC827 cells; Homo sapiens) [nM]	IC50 (BT474 cells; [1]) [nM]	IC50 (EGFR kinase) [nM]	IC50 (HCC827 cells) [nM]	IC50 (BT474 cells; 72 h incubation) [nM]
CN(C)C/C=C/C(=O)N1CCOc2c1ccc1ncnc(Nc3ccc(SCc4ccccc4)cc3)c21 [Example 66, (E)-4-(dimethylamino)-1-(10-((4-(benzylthio)phenyl)amino)-2,3-dihydro-4H-[1,4]oxazino[2,3-f]quinazolin-4-yl)but-2-en-1-one]	≤ 50	500 to 5000	≤ 50	≤ 50	–	–
COc1cc(Nc2ncnc3ccc4c(c23)OCCN4C(=O)/C=C/CN(C)C)ccc1OCc1cccc(F)c1 [Example 68, (E)-4-(dimethylamino)-1-(10-((4-((3-fluorobenzyl)oxy)-3-methoxyphenyl)amino)-2,3-dihydro-4H-[1,4]oxazino[2,3-f]quinazolin-4-yl)but-2-en-1-one]	≤ 50	500 to 5000	≤ 50	≤ 50	–	–
CN(C)C/C=C/C(=O)N1CCOc2c1ccc1ncnc(Nc3ccc(OCc4cccc(F)c4)c(F)c3)c21 [Example 69, (E)-4-(dimethylamino)-1-(10-((4-((3-fluorobenzyl)oxy)-3-fluorophenyl)amino)-2,3-dihydro-4H-[1,4]oxazino[2,3-f]quinazolin-4-yl)but-2-en-1-one]	≤ 50	500 to 5000	≤ 50	≤ 50	–	–
Cc1ccc(F)c(Oc2ccc(Nc3ncnc4ccc5c(c34)OCCN5C(=O)/C=C/CN(C)C)cc2)c1 [Example 71, (E)-4-(dimethylamino)-1-(10-((4-(2-fluoro-5-methylphenoxy)phenyl)amino)-2,3-dihydro-4H-[1,4]oxazino[2,3-f]quinazolin-4-yl)but-2-en-1-one]	≤ 50	500 to 5000	≤ 50	≤ 50	–	–
CN(C)C/C=C/C(=O)N1CCOc2c1ccc1ncnc(Nc3ccc(Oc4cc(Cl)ccc4F)cc3)c21 [Example 72, (E)-4-(dimethylamino)-1-(10-((4-(5-chloro-2-fluorophenoxy)phenyl)amino)-2,3-dihydro-4H-[1,4]oxazino[2,3-f]quinazolin-4-yl)but-2-en-1-one]	≤ 50	50 to 500	≤ 50	≤ 50	–	–
CN(C)C/C=C/C(=O)N1CCOc2c1ccc1ncnc(Nc3ccc(Oc4cc(F)ccc4F)cc3)c21 [Example 73, (E)-4-(dimethylamino)-1-(10-((4-(2,5-difluorophenoxy)phenyl)amino)-2,3-dihydro-4H-[1,4]oxazino[2,3-f]quinazolin-4-yl)but-2-en-1-one]	≤ 50	500 to 5000	≤ 50	50 to 500	–	–
CC(Oc1ccc(Nc2ncnc3ccc4c(c23)OCCN4C(=O)/C=C/CN(C)C)cc1)c1cccc(F)c1 (centres unmarked) [Example 74, (E)-4-(dimethylamino)-1-(10-((4-(1-(3-fluorophenyl)ethoxy)phenyl)amino)-2,3-dihydro-4H-[1,4]oxazino[2,3-f]quinazolin-4-yl)but-2-en-1-one]	≤ 50	500 to 5000	≤ 50	50 to 500	–	–
CN(C)C/C=C/C(=O)N1CCOc2c1ccc1ncnc(Nc3ccc(OCc4cccnc4)cc3)c21 [Example 76, (E)-4-(dimethylamino)-1-(10-((4-(pyridin-3-ylmethoxy)phenyl)amino)-2,3-dihydro-4H-[1,4]oxazino[2,3-f]quinazolin-4-yl)but-2-en-1-one]	≤ 50	50 to 500	≤ 50	500 to 5000	–	–
CN(C)C/C=C/C(=O)N1CCOc2c1ccc1ncnc(Nc3ccc(OCc4cccc(Cl)c4)cc3)c21 [Example 83, (E)-1-(10-((4-((3-chlorobenzyl)oxy)phenyl)amino)-2,3-dihydro-4H-[1,4]oxazino[2,3-f]quinazolin-4-yl)-4-(dimethylamino)but-2-en-1-one]	≤ 50	500 to 5000	≤ 50	≤ 50	–	–
O=C(/C=C/CN1CCCC1)N1CCOc2c1ccc1ncnc(Nc3ccc(Oc4ccccc4)cc3)c21 [Example 91, (E)-1-(10-((4-phenoxyphenyl)amino)-2,3-dihydro-4H-[1,4]oxazino[2,3-f]quinazolin-4-yl)-4-(pyrrolidin-1-yl)but-2-en-1-one]	≤ 50	500 to 5000	≤ 50	≤ 50	–	–
CCN(CC)C/C=C/C(=O)N1CCOc2c1ccc1ncnc(Nc3ccc(Oc4ccccc4)cc3)c21 [Example 92, (E)-4-(diethylamino)-1-(10-((4-phenoxyphenyl)amino)-2,3-dihydro-4H-[1,4]oxazino[2,3-f]quinazolin-4-yl)but-2-en-1-one]	≤ 50	500 to 5000	≤ 50	≤ 50	–	–
O=C(/C=C/CN1CCCCC1)N1CCOc2c1ccc1ncnc(Nc3ccc(Oc4ccccc4)cc3)c21 [Example 93, (E)-1-(10-((4-phenoxyphenyl)amino)-2,3-dihydro-4H-[1,4]oxazino[2,3-f]quinazolin-4-yl)-4-(piperidin-1-yl)but-2-en-1-one]	≤ 50	50 to 500	≤ 50	≤ 50	–	–
O=C(/C=C/CN1CCOCC1)N1CCOc2c1ccc1ncnc(Nc3ccc(Oc4ccccc4)cc3)c21 [Example 94, (E)-4-morpholino-1-(10-((4-phenoxyphenyl)amino)-2,3-dihydro-4H-[1,4]oxazino[2,3-f]quinazolin-4-yl)but-2-en-1-one]	≤ 50	500 to 5000	≤ 50	≤ 50	–	–
CN1CCN(C/C=C/C(=O)N2CCOc3c2ccc2ncnc(Nc4ccc(Oc5ccccc5)cc4)c32)CC1 [Example 95, (E)-4-(4-methylpiperazin-1-yl)-1-(10-((4-phenoxyphenyl)amino)-2,3-dihydro-4H-[1,4]oxazino[2,3-f]quinazolin-4-yl)but-2-en-1-one]	≤ 50	50 to 500	≤ 50	≤ 50	–	–

Now from value to compound:

IC50 (HER2 kinase) [nM]	IC50 (HCC827 cells; Homo sapiens) [nM]	IC50 (BT474 cells; [1]) [nM]	IC50 (EGFR kinase) [nM]	IC50 (HCC827 cells) [nM]	IC50 (BT474 cells; 72 h incubation) [nM]	Structure (SMILES)
≤ 50	500 to 5000	≤ 50	≤ 50	–	–	CN(C)C/C=C/C(=O)N1CCOc2c1ccc1ncnc(Nc3ccc(OCc4ccc(F)cc4)cc3)c21 [Example 60, (E)-4-(dimethylamino)-1-(10-((4-((4-fluorobenzyl)oxy)phenyl)amino)-2,3-dihydro-4H-[1,4]oxazino[2,3-f]quinazolin-4-yl)but-2-en-1-one]
≤ 50	> 5000	≤ 50	≤ 50	–	–	CN(C)C/C=C/C(=O)N1CCOc2c1ccc1ncnc(Nc3ccc(OCc4cccc(F)c4)cc3)c21 [Example 61, (E)-4-(dimethylamino)-1-(10-((4-((3-fluorobenzyl)oxy)phenyl)amino)-2,3-dihydro-4H-[1,4]oxazino[2,3-f]quinazolin-4-yl)but-2-en-1-one]
≤ 50	–	–	≤ 50	> 5000	50 to 500	CN(C)C/C=C/C(=O)N1CCOc2c1ccc1ncnc(Nc3ccc(OCc4cccc(C(F)(F)F)c4)cc3)c21 [Example 62]
≤ 50	500 to 5000	≤ 50	50 to 500	–	–	CN(C)C/C=C/C(=O)N1CCOc2c1ccc1ncnc(Nc3ccc(OCc4ccccn4)cc3)c21 [Example 63, (E)-4-(dimethylamino)-1-(10-((4-(pyridin-2-ylmethoxy)phenyl)amino)-2,3-dihydro-4H-[1,4]oxazino[2,3-f]quinazolin-4-yl)but-2-en-1-one]
≤ 50	50 to 500	≤ 50	50 to 500	–	–	CN(C)C/C=C/C(=O)N1CCOc2c1ccc1ncnc(Nc3ccc(OCc4cccs4)cc3)c21 [Example 64, (E)-4-(dimethylamino)-1-(10-((4-(thiophen-2-ylmethoxy)phenyl)amino)-2,3-dihydro-4H-[1,4]oxazino[2,3-f]quinazolin-4-yl)but-2-en-1-one]
≤ 50	50 to 500	≤ 50	≤ 50	–	–	CN(C)C/C=C/C(=O)N1CCOc2c1ccc1ncnc(Nc3ccc(OCc4nccs4)cc3)c21 [Example 65, (E)-4-(dimethylamino)-1-(10-((4-(thiazol-2-ylmethoxy)phenyl)amino)-2,3-dihydro-4H-[1,4]oxazino[2,3-f]quinazolin-4-yl)but-2-en-1-one]
